One assay has as its system MDA-MB-231. As to the kind of experiment: Cell viability assay (SRB or CTG) in MDA-MB-231. The assay is classed as cell-based. The note with it: Homo sapiens, MDA-MB-231, 72 h, 3 days after drug treatment. The method, then: (§1) Human breast carcinoma cell line, MDA-MB-231 and human endometrial cancer cell line, HEC-59 were purchased from ATCC (American Type Culture Collection; USA). MDA-MB-231 cells were cultured in Dulbecco's modified Eagle's medium (Lonza, NJ, USA), and HEC-59 were grown in Iscove's Modified Dulbecco's Medium (Lonza, NJ, USA), supplemented with 10% fetal bovine serum (FBS, Lonza), 1% non-essential amino acid (NEAA), 2 mM L-glutamine (Sigma Aldrich, MO, USA) and 50 U/ml penicillin/streptomycin (P/S). All cell lines were tested regularly using MycoAlert Mycoplasma Detection Kit (Lonza). The cumulative length of the cells between thawing and use in the experiments was less than 20 passages.
(§2) 4000 cells/well of MDA-MB-231 and HEC-59 cells were seeded in a 96 well plate in 80 μL media/well. Approximately 18 hours later, 3× drug solutions were prepared by serial dilution (100, 10, 5, 1, 0.5, 0.3, 0.1, 0.05, 0.01 μM), and the drug containing media was added to each well with a volume of 40 μL. For MDA-MB-231, 3 days after drug treatment, the SRB or CTG assay was performed. HEC59, the drug containing media was renewed at day 4. After 7 days total, the SRB or CTG assay was performed.

The test system of another assay is HEC-59. Kind of assay: Cell viability assay (SRB or CTG) in HEC-59. The conditions noted are these: Homo sapiens, 7 days total, media renewed at day 4, SRB or CTG. It is filed as cell-based. As for the experimental part:
as §1, §2

A further assay relates to RKO xenograft. As to the kind of experiment: RKO colon cancer xenograft tumor growth. The assay is classed as in vivo, female athymic Balb/c nude mice. The method, then: Six-to-eight-week-old female athymic Balb/c nude mice were housed with a temperature-controlled and 12-hour light/12-hour dark cycle environment. For in vivo colon cancer tumor growth, 5×10^6 RKO cells were prepared in 100 μl of DMEM and injected into right flank of female nude mice. Mouse weight and tumor volume were measured twice a week. Tumor volumes were calculated as length×width^2×0.5. Once the tumor volume had reached about 150-175 mm^3, xenografts were randomized into groups (8 mice per group). Animals were treated with vehicle, Compound 80 or oxaliplatin as mentioned in the table. The formulation for vehicle and Compound 80 was 50% PEG400 and 20% Cremophor RH40 final (50% of 40% Cremophor) in Acetate buffer, PH=4. Oxaliplatin was prepared in glucose solution. The mice were sacrificed after around 3 weeks or if the tumors reached a predefined tumor volume cut-off of 2500 mm^3.

The test system of another assay is MDA-MB-231 xenograft. Kind of assay: MDA-MB-231 xenograft tumor growth. The conditions noted are these: MDA-MB-231 xenograft, 20, 25 and 30 mpk BID. It is filed as in vivo, female athymic Balb/c nude mice. The method, then:
(§3) Compound 80 was tested in other xenograft models using the following cell lines: triple negative breast cancer cell line, MDA-MB-231, ovarian cancer cell line, SKOV-3 and endometrium cell line, HEC-59. For the SKOV-3 xenograft, 1.5×10^7 SKOV-3 cells in 200 μl of 1:1 DMEM: Matrigel (Thermo Fisher, NJ, USA) and for the MDA-MB-231 xenograft, 1.5×10^7 MDA-MB-231 cells in 100 μl of 1:1 DMEM: Matrigel (Thermo Fisher, NJ, USA) for was injected in the right flank of six-to-eight-week-old female athymic Balb/c nude mice. When the tumor volume reached mean of ˜200 mm^3 mice for SKOV-3 xenografts and between 150-175 mm^3 for MDA-MB-231 xenografts, mice were randomized in a group of 8, and treatment was initiated vehicle, 20 mpk BID, 25 mpk BID and 30 mpk BID of Compound 80. For the HEC-59 xenografts, 1.×10^7 HEC-59 cells in 100 μl of DMEM (Lonza, NJ, USA) was injected in the right flank of six-to-eight-week-old female athymic Balb/c nude mice. When the tumor volume reached mean of ˜150 mm^3 mice were randomized in a group of 8 mice, and treatment was initiated vehicle, 20 mpk BID, 40 mpk QD and 30/40 mpk BID of Compound 80.

Another assay deals with SKOV-3 xenograft. As to the kind of experiment: SKOV-3 xenograft tumor growth. It is filed as in vivo, female athymic Balb/c nude mice. The conditions noted are these: SKOV-3 xenograft, 20, 25 and 30 mpk BID. The method, then:
as §3

The next assay deals with HEC-59 xenograft. As to the kind of experiment: HEC-59 xenograft tumor growth. It is filed as in vivo, female athymic Balb/c nude mice. The note with it: 20 mpk BID, 40 mpk QD and 30/40 mpk BID. The method, then: as §3

pIC50: −log10 of the molar value.

These results are taken from patent publication US11986475B1, “Compositions and methods for treating cancer” (A2A Pharmaceuticals, Inc., priority 2022, dated 2024).

`C[C@@H]1CN(c2ncc(F)c(Nc3cc(-c4ccc(OC(F)F)cc4)cnn3)n2)C[C@H](C)O1` [Compound 80, 5-(4-(difluoromethoxy)phenyl)-N-(2-((2R,6S)-2,6-dimethylmorpholino)-5-fluoropyrimidin-4-yl)pyridazin-3-amine]: the pIC50 in the assay with MDA-MB-231 is 6.40; with HEC-59, 6.63. For the same molecule, the “tumor growth inhibition (in words)” value with RKO xenograft (RKO xenograft, 20 and 30 mg/kg BID, 50 mg/kg QD PO) is recorded as “strong tumor growth inhibition in a dose-dependent manner”. This molecule came in with a TGI in the assay with RKO xenograft (RKO xenograft, at the highest dose, PO, 20 days) of 85%. Moreover, the “tumor growth inhibition compared to the standard of care (FIG. 1)” value with RKO xenograft (xenograft model, versus standard of care (oxaliplatin)) was “superior tumor growth inhibition”. Also, the “tumor growth inhibition or regression” value in the assay on MDA-MB-231 xenograft, with SKOV-3 xenograft and in the assay with HEC-59 xenograft was “Statistically significant tumor growth inhibition or regression was observed” in each case.
As for `C[C@@H]1CN(c2cc(Nc3cc(-c4ccc(OC(F)F)cc4)cnn3)ccn2)C[C@H](C)O1` [Compound 428, 5-(4-(difluoromethoxy)phenyl)-N-(2-((2R,6S)-2,6-dimethylmorpholino)pyridin-4-yl)pyridazin-3-amine], the results for the negative logarithm of the IC50 (pIC50) in the assay with MDA-MB-231 and in the assay with HEC-59 were 6.10 and < 5.00, respectively.
Consider `C[C@@H]1CN(c2cc(Nc3cc(-c4ccc(OC(F)F)cc4)cnn3)c(F)cn2)C[C@H](C)O1` [Compound 469, 5-(4-(difluoromethoxy)phenyl)-N-(2-((2R,6S)-2,6-dimethylmorpholino)-5-fluoropyridin-4-yl)pyridazin-3-amine], for which the pIC50 was 6.19 with MDA-MB-231 and 5.89 in the assay on HEC-59.
For `Cc1nnc(Nc2nc(N3C[C@@H](C)O[C@@H](C)C3)ncc2F)cc1-c1ccc(OC(F)F)cc1` [Compound 508, 5-(4-(difluoromethoxy)phenyl)-N-(2-((2R,6S)-2,6-dimethylmorpholino)-5-fluoropyrimidin-4-yl)-6-methylpyridazin-3-amine], the negative logarithm of the IC50 (pIC50) is < 5.00 in the assay on MDA-MB-231 and 5.14 in the assay with HEC-59.
Take `COc1nnc(Nc2nc(N3C[C@@H](C)O[C@@H](C)C3)ncc2F)cc1-c1ccc(OC(F)F)cc1` [Compound 526, 5-(4-(difluoromethoxy)phenyl)-N-(2-((2R,6S)-2,6-dimethylmorpholino)-5-fluoropyrimidin-4-yl)-6-methoxypyridazin-3-amine]: the negative logarithm of the IC50 (pIC50) in the assay with MDA-MB-231 is < 5.00; with HEC-59, 5.93.
The matching figures for `CNc1nnc(Nc2nc(N3C[C@@H](C)O[C@@H](C)C3)ncc2F)cc1-c1ccc(OC(F)F)cc1` [Compound 544, 4-(4-(difluoromethoxy)phenyl)-N6-(2-((2R,6S)-2,6-dimethylmorpholino)-5-fluoropyrimidin-4-yl)-N3-methylpyridazine-3,6-diamine]: < 5.00 and 5.57.
The matching figures for `C[C@@H]1CN(c2ncc(F)c(Nc3cc(-c4ccc(OC(F)F)cc4)c(C(=O)O)nn3)n2)C[C@H](C)O1` [Compound 562, 4-(4-(difluoromethoxy)phenyl)-6-((2-((2R,6S)-2,6-dimethylmorpholino)-5-fluoropyrimidin-4-yl)amino)pyridazine-3-carboxylic acid]: < 5.00 and < 5.00.
Regarding `CC(=O)c1nnc(Nc2nc(N3C[C@@H](C)O[C@@H](C)C3)ncc2F)cc1-c1ccc(OC(F)F)cc1` [Compound 580, 1-(4-(4-(difluoromethoxy)phenyl)-6-((2-((2R,6S)-2,6-dimethylmorpholino)-5-fluoropyrimidin-4-yl)amino)pyridazin-3-yl)ethan-1-one], the negative logarithm of the IC50 (pIC50) with MDA-MB-231 and with HEC-59 was < 5.00 in each case.
For the molecule `C[C@@H]1CN(c2ncc(F)c(Nc3cc(-c4ccc(OC(F)F)cc4)c(N)nn3)n2)C[C@H](C)O1` [Compound 598, 5-(4-(difluoromethoxy)phenyl)-N3-(2-((2R,6S)-2,6-dimethylmorpholino)-5-fluoropyrimidin-4-yl)pyridazine-3,6-diamine], the negative logarithm of the IC50 (pIC50) is 6.09 with MDA-MB-231 and 5.01 with HEC-59.
With `COC(=O)c1nnc(Nc2nc(N3C[C@@H](C)O[C@@H](C)C3)ncc2F)cc1-c1ccc(OC(F)F)cc1` [Compound 616, methyl 4-(4-(difluoromethoxy)phenyl)-6-((2-((2R,6S)-2,6-dimethylmorpholino)-5-fluoropyrimidin-4-yl)amino)pyridazine-3-carboxylate], the negative-log IC50 (pIC50) in the assay with MDA-MB-231 and with HEC-59 was < 5.00 throughout.
Take `CNC(=O)c1nnc(Nc2nc(N3C[C@@H](C)O[C@@H](C)C3)ncc2F)cc1-c1ccc(OC(F)F)cc1` [Compound 634, 4-(4-(difluoromethoxy)phenyl)-6-((2-((2R,6S)-2,6-dimethylmorpholino)-5-fluoropyrimidin-4-yl)amino)-N-methylpyridazine-3-carboxamide]: the negative-log IC50 (pIC50) with MDA-MB-231 and with HEC-59 was < 5.00 each time.

The pIC50 is −log10 of the IC50, conventionally taken in molar units. A high value points to a low IC50. By TGI is commonly meant how far tumour growth fell short of that in controls. A lower TGI goes with a weaker effect on the tumour.
